Values of other authors as cited in patent publication US20090317483A1, “Bicomponent Bioadhesive for Biomedical Use” (INSTITUTO OFTALMOLOGICO DE ALICANTE, S.L., priority 2004, published 2009).

Details: in vivo

For `C=C(C#N)C(=O)OCCCC` [butyl cyanoacrylate], the “closure of corneal perforations” value is given as “effective”.
